Legend:
Experiment in all cases: relative viability (nuclei count vs DMSO), 5 days (fraction); higher = more cells survive
TPCA-1 + Pictilisib = compound: C1=CC(=CC=C1C2=CC(=C(S2)NC(=O)N)C(=O)N)F [TPCA-1] + CS(=O)(=O)N1CCN(Cc2cc3nc(-c4cccc5[nH]ncc45)nc(N4CCOCC4)c3s2)CC1 [Pictilisib] (partner 1 µM)
Summary of the method: (§1)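 Lung cancer cell lines, seeded in 1536-well plates, were treated the following day by pin tool with a single drug or with five library-drug doses (not always all listed) in √10 steps on top of a fixed anchor-drug dose. Cells were fixed and nuclei stained in one step after 5 days, and nuclei were counted. Relative viability is the nuclei count for treated wells divided by that for vehicle wells, reported as medians of duplicate plates.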

[1] = compound: C1/C(=C\C2=CC=CS2)/C(=O)/C(=C/C3=CC=CS3)/C1 + Nc1nc2[nH]cc(CCc3ccc(C(=O)N[C@@H](CCC(=O)O)C(=O)O)cc3)c2c(=O)[nH]1 [Pemetrexed] (partner 0.2 µM)
Summary of the method: as §1

[2] = compound: C1/C(=C\C2=CC=CS2)/C(=O)/C(=C/C3=CC=CS3)/C1 + COc1cccc2cc(-c3nc([C@H]4CC[C@H](C(=O)O)CC4)n4ncnc(N)c34)[nH]c12 [OSI-027] (partner 0.5 µM)
Summary of the method: as §1

[3] = compound: C1/C(=C\C2=CC=CS2)/C(=O)/C(=C/C3=CC=CS3)/C1 + O=C(CCCCCCC(=O)Nc1ccccc1)NO [Vorinostat] (partner 1 µM)
Summary of the method: as §1

Row | Cell Line | relative viability (TPCA-1 + Pictilisib; first compound 0.04 µM) | relative viability (TPCA-1 + Pictilisib; first compound 0.1265 µM) | relative viability (TPCA-1 + Pictilisib; first compound 0.4 µM) | relative viability (TPCA-1 + Pictilisib; first compound 1.265 µM) | relative viability (TPCA-1 + Pictilisib; first compound 4 µM) | relative viability ([1]; first compound 0.2 µM) | relative viability ([1]; first compound 0.6325 µM) | relative viability ([1]; first compound 2 µM) | relative viability ([1]; first compound 6.325 µM) | relative viability ([1]; first compound 20 µM) | relative viability ([2]; first compound 0.2 µM) | relative viability ([2]; first compound 0.6325 µM) | relative viability ([2]; first compound 2 µM) | relative viability ([2]; first compound 6.325 µM) | relative viability ([2]; first compound 20 µM) | relative viability ([3]; first compound 0.2 µM) | relative viability ([3]; first compound 0.6325 µM) | relative viability ([3]; first compound 2 µM) | relative viability ([3]; first compound 6.325 µM) | relative viability ([3]; first compound 20 µM)
1 | NCI-H1651 | 0.637 | 0.487 | 0.561 | 0.657 | 0.436 | 0.582 | 0.666 | 0.778 | 0.495 | 0.58 | 0.684 | 0.803 | 0.815 | 0.676 | 0.789 | 0.553 | 0.63 | 0.694 | 0.509 | 0.558
2 | NCI-H1666 | 0.419 | 0.35 | 0.412 | 0.561 | 0.404 | 0.82 | 0.84 | 0.877 | 0.791 | 0.813 | 0.874 | 0.863 | 0.83 | 0.732 | 0.964 | 1.09 | 1.02 | 0.874 | 0.893 | 0.928
3 | NCI-H1734 | 0.53 | 0.353 | 0.447 | 0.518 | 0.264 | 0.439 | 0.433 | 0.457 | 0.37 | 0.426 | 0.584 | 0.668 | 0.741 | 0.519 | 0.593 | 0.82 | 0.875 | 0.837 | 0.745 | 0.865
4 | NCI-H1755 | 0.406 | 0.344 | 0.426 | 0.209 | 0.204 | 0.436 | 0.413 | 0.484 | 0.369 | 0.387 | 0.787 | 0.709 | 0.79 | 0.683 | 0.759 | 0.725 | 0.857 | 0.745 | 0.777 | 0.716
5 | NCI-H1793 | 0.292 | 0.381 | 0.454 | 0.245 | 0.28 | 0.973 | 0.711 | 1.03 | 0.796 | 0.914 | 0.333 | 0.303 | 0.322 | 0.202 | 0.31 | 1.02 | 0.753 | 0.892 | 0.654 | 0.734
6 | NCI-H1915 | 1.27 | 0.906 | 1.05 | 0.876 | 0.477 | 0.456 | 0.529 | 0.479 | 0.447 | 0.475 | 0.636 | 0.632 | 0.657 | 0.249 | 0.681 | 0.568 | 0.546 | 0.551 | 0.433 | 0.528
7 | NCI-H1944 | 0.384 | 0.326 | 0.343 | 0.312 | 0.258 | 0.619 | 0.591 | 0.603 | – | 0.572 | 0.464 | 0.409 | 0.464 | 0.408 | 0.425 | 0.619 | 0.535 | 0.559 | – | 0.528
8 | NCI-H1975 | 0.278 | 0.259 | 0.264 | 0.233 | 0.16 | 0.321 | 0.298 | 0.32 | 0.269 | 0.301 | 0.944 | 0.689 | – | 0.661 | 0.739 | 0.814 | 0.671 | 0.774 | 0.689 | 0.731

Source: the supplement of paper PMC10307832
